Assay results taken from patent US20240238265A1 (priority 2020, published 2024).

Key:
[1] = in vitro; conditions: African green monkey
[2] = 1 h, pH 7.4
[3] = test system: pseudotyped VSV expressing EBOV glycoprotein; assay: microbe, parasite or virus in culture; format: cell-based, Ebola virus (EBOV); conditions: Zaire ebolavirus, Vero, 24 h, read-out: EC50 (uM) Pseudotype Assays EBOV
[4] = test system: SUDV-Gulu; assay: microbe, parasite or virus in culture; format: cell-based, Sudan virus (SUDV)
[5] = 1 h, pH 7.4; remark: listed apart in the source
[6] = test system: EBOV-Zaire; assay: microbe, parasite or virus in culture; format: cell-based, Ebola virus (EBOV)
[7] = test system: pseudotyped VSV expressing SUDV glycoprotein; assay: microbe, parasite or virus in culture; format: cell-based, Sudan virus (SUDV); conditions: Vesicular stomatitis virus, Vero, 24 h, read-out: EC50 (uM) Pseudotype Assays SUDV
[8] = 1 h, pH 7.4; remark: listed apart in the source
[9] = 1 h, pH 7.4; remark: listed apart in the source
[10] = test system: pseudotyped VSV expressing MARV glycoprotein; assay: microbe, parasite or virus in culture; format: cell-based, Marburg virus (MARV); conditions: Vesicular stomatitis virus, Vero, 24 h, read-out: EC50 (uM) Pseudotype Assays MARV
[11] = test system: pseudotyped VSV expressing BDBV glycoprotein; assay: microbe, parasite or virus in culture; format: cell-based, Bundibugyo virus (BDBV); conditions: Vesicular stomatitis virus, Vero, 24 h, read-out: EC50 (uM) Pseudotype Assays BDBV
[12] = 1 h, pH 7.4; remark: listed apart in the source
[13] = 1 h, pH 7.4; remark: listed apart in the source
[14] = test system: WT EBOV-Mayinga; assay: microbe, parasite or virus in culture; format: cell-based, Ebola virus (EBOV)
[15] = test system: EBOV (strain kikwit); assay: microbe, parasite or virus in culture; format: cell-based, Ebola virus (EBOV)
[16] = test system: SUDV (strain Gulu); assay: microbe, parasite or virus in culture; format: cell-based, Sudan virus (SUDV)

SMILES: CCC=C1C2CC3(C(=S)N[C@H]4CC[C@H](N)CC4)CC1CC(c1ccccc1)(C2)C3 (relative stereo) [Example D2, trans-N-(4-aminocyclohexyl)-3-phenyl-6-propylideneadamantane-1-carbothioamide]
- CC50 [1]: 1780 nM
- Percent parent compound remaining at 60 minutes in liver microsomes, Human [2]: 100%
- EC50 [3]: 0.051 µM
- SUDV-Gulu SI50 (CC50/EC50) [4]: 78
- EC50 ([4]; Sudan ebolavirus, Vero, read-out: SUDV-Gulu EC50 (uM)): 0.11 µM
- Percent parent compound remaining at 60 minutes in liver microsomes, Guinea Pig [5]: 100%
- EBOV-Zaire SI50 (CC50/EC50) [6]: 3.3
- EC50 ([6]; Zaire ebolavirus, Vero, read-out: EBOV-Zaire EC50 (uM)): 2.6 µM
- EC50 [7]: 0.072 µM
- Percent parent compound remaining at 60 minutes in liver microsomes, Monkey [8]: 100%

SMILES: CC1C2CC3(C(=O)N[C@H]4CC[C@H](N)CC4)CC1CC(c1ccccc1)(C2)C3 (stereo partly drawn) [Example F1, trans-N-(4-aminocyclohexyl)-6-methyl-3-phenyladamantane-1-carboxamide]
- Percent parent compound remaining at 60 minutes in liver microsomes, Rat [9]: 99%
- EC50 [10]: > 3 µM
- CC50 [1]: 13300 nM
- Percent parent compound remaining at 60 minutes in liver microsomes, Human [2]: 91%
- EC50 [11]: 0.065 µM
- Percent parent compound remaining at 60 minutes in liver microsomes, Mouse [12]: 83%
- EC50 [3]: 0.027 µM
- Percent parent compound remaining at 60 minutes in liver microsomes, Dog [13]: 82%
- Percent parent compound remaining at 60 minutes in liver microsomes, Guinea Pig [5]: 79%
- EC50 [7]: 0.21 µM
- Percent parent compound remaining at 60 minutes in liver microsomes, Monkey [8]: 92%

SMILES: CCC1C2CC3(C(=O)N[C@H]4CC[C@H](N)CC4)CC1CC(c1ccccc1)(C2)C3 (stereo partly shown) [Example F2]
- Percent parent compound remaining at 60 minutes in liver microsomes, Rat [9]: 86.5%
- EC50 [10]: 3.1 µM
- CC50 [1]: 12600 nM
- Percent parent compound remaining at 60 minutes in liver microsomes, Human [2]: 85%
- EC50 [11]: 0.03 µM
- Percent parent compound remaining at 60 minutes in liver microsomes, Mouse [12]: 48%
- WT EBOV-Mayinga SI50 (CC50/EC50) [14]: 706.84
- WT EBOV-Mayinga SI90 (CC50/EC90) [14]: 209.99
- EC50 ([14]; Zaire ebolavirus, read-out: WT EBOV-Mayinga EC50 (uM)): 0.014 µM
- EC90 ([14]; Zaire ebolavirus, read-out: WT EBOV-Mayinga EC90 (uM)): 0.048 µM
- EC50 [3]: 0.011 µM
- Percent parent compound remaining at 60 minutes in liver microsomes, Dog [13]: 80%
- EBOV-Kikwit SI50 (CC50/EC50) [15]: 90.33
- EC50 ([15]; Zaire ebolavirus, HeLa, read-out: EBOV-Kikwit EC50 (uM)): 0.11 µM
- Percent parent compound remaining at 60 minutes in liver microsomes, Guinea Pig [5]: 68%
- SUDV-Gulu SI50 (CC50/EC50) [16]: 291.26
- EC50 ([16]; Sudan ebolavirus, HeLa, read-out: SUDV-Gulu EC50 (uM)): 0.039 µM
- EC50 [7]: 0.27 µM
- Percent parent compound remaining at 60 minutes in liver microsomes, Monkey [8]: 100%
